# Data as given in US20070149519A1, “Benzimidazol substituted thiopene derivatives with activity on ikk3” (priority 2004, published 2007).
# Target: T1, Recombinant human IKK3 (Homo sapiens, UniProt Q14164)
# T1 construct: FLAG; made in house
# T1 sequence (Q14164 1-716): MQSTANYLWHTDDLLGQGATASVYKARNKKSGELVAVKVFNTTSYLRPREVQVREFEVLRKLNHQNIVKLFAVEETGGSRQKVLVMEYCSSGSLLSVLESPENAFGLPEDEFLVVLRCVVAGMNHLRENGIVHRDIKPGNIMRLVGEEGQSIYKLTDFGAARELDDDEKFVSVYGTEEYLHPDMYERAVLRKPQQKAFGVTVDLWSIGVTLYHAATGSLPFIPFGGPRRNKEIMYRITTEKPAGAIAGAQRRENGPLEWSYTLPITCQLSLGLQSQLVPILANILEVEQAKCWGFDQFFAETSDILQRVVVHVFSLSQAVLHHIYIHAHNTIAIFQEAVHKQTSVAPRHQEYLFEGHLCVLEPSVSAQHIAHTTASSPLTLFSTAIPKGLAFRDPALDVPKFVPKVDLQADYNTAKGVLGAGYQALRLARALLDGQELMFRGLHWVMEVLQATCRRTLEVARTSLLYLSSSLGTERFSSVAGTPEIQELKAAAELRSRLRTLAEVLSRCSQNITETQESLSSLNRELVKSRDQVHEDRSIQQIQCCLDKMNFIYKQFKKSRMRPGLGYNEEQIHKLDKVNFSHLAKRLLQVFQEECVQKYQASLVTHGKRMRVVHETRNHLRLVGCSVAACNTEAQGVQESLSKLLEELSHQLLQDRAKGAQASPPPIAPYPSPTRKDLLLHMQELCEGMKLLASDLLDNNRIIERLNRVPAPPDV
# Experiment: IKK3 TR-FRET kinase assay
# Type: biochemical
# Details: IKK3 15 nM, GST-IκBα 25 nM, ATP 2 μM, 15 minutes at room temperature
# Protocol: Recombinant human IKK3 was expressed in baculovirus as a FLAG tagged fusion protein, and its activity was assessed using a time-resolved fluorescence resonance energy transfer (TR-FRET) assay. Briefly, IKK3 (15 nM final) diluted in assay buffer (50 mM HEPES, 10 mM MgCl2, 1 mM CHAPS pH 7.4 with 1 mM DTT and 0.01% w/v BSA) was added to wells containing various concentrations of compound or DMSO vehicle (3% final). The reaction was initiated by the addition of GST-IκBα substrate (25 nM final)/ATP (2 μM final), in a total volume of 30 μl. The reaction was incubated for 15 minutes at room temperature, then terminated by the addition of 15 μl of 50 mM EDTA. Detection reagent (15 μl) in buffer (100 mM HEPES pH 7.4, 150 mM NaCl and 0.1% w/v BSA) containing antiphosphoserine-IκBα-32/36 monoclonal antibody 12C2 (Cell Signalling Technology, Massachusetts, USA) labelled with W-1024 europium chelate (Wallac OY, Turku, Finland), and an APC-labelled anti-GST antibody (Prozyme, San Leandro, Calif., USA) was added and the reaction was further incubated for 45 minutes at room temperature. The degree of phosphorylation of GST-IκBα was measured using a Packard Discovery plate reader (Perkin-Elmer Life Sciences, Pangbourne, UK) as a ratio of specific 665 nm energy transfer signal to reference europium 620 nm signal.
row,IC50 [µM],SMILES
1,1 to 10,"N#Cc1sc(-n2cnc3cc(Cl)ccc32)cc1OCc1ccccc1 [Example 10, 5-(5-Chloro-1H-benzimidazol-1-yl)-3-[(phenylmethyl)oxy]-2-thiophenecarbonitrile]"
2,< 1,"COc1cc2ncn(-c3cc(OCCN4CCCC4=O)c(C#N)s3)c2cc1OC [Example 21, 5-[5,6-bis(methyloxy)-1H-benzimidazol-1-yl]-3-{[2-(2-oxo-1-pyrrolidinyl)ethyl]oxy}-2-thiophenecarbonitrile]"
3,< 1,"COc1cc2ncn(-c3cc(OCCc4ccccc4)c(C#N)s3)c2cc1OC [Example 17, 5-[5,6-bis(methyloxy)-1H-benzimidazol-1-yl]-3-[(2-phenylethyl)oxy}-2-thiophenecarbonitrile]"
4,< 1,"CCC[C@H](Oc1cc(-n2cnc3cc(OC)c(OC)cc32)sc1C#N)c1ccccc1Cl [Example 25, 5-[5,6-bis(methyloxy)-1H-benzimidazol-1-yl]-3-{[(1S)-1-(2-chlorophenyl)butyl]oxy}-2-thiophenecarbonitrile]"
5,< 1,"N#Cc1sc(-n2cnc3cc(C(=O)NCCN4CCOCC4)ccc32)cc1OCc1ccccc1C(F)(F)F [Example 15, 1-[5-cyano-4-({[2-(trifluoromethyl)phenyl]methyl}oxy)-2-thienyl]-N-[2-(4-morpholinyl)ethyl]-1H-benzimidazole-5-carboxamide]"
6,1 to 10,"COc1cc2ncn(-c3cc(OCC4CCCO4)c(C#N)s3)c2cc1OC (stereo not shown) [Example 22, 5-[5,6-bis(methyloxy)-1H-benzimidazol-1-yl]-3-[(tetrahydro-2-furanylmethyl)oxy]-2-thiophenecarbonitrile]"
7,1 to 10,"CC[C@@H](C)Oc1cc(-n2cnc3cc(OC)c(OC)cc32)sc1C#N [Example 28, 5-[5,6-bis(methyloxy)-1H-benzimidazol-1-yl]-3-{[(1 R)-1-methylpropyl]oxy}-2-thiophenecarbonitrile]"
8,< 1,"COc1cc2ncn(-c3cc(OCc4ccc5nnn(C)c5c4)c(C#N)s3)c2cc1OC [Example 6, 5-[5,6-bis(methyloxy)-1H-benzimidazol-1-yl]-3-{[(1-methyl-1H-1,2,3-benzotriazol-6-yl)methyl]oxy}-2-thiophenecarbonitrile]"
9,1 to 10,"COc1ccccc1COc1cc(-n2cnc3cc(OC)c(OC)cc32)sc1C#N [Example 19, 5-[5,6-bis(methyloxy)-1H-benzimidazol-1-yl]-3-({[2-(methyloxy)phenyl]methyl}oxy)-2-thiophenecarbonitrile]"
10,< 1,"COc1cc2ncn(-c3cc(OCc4cc(F)ccc4F)c(C#N)s3)c2cc1OC [Example 8, 5-[5,6-Bis(methyloxy)-1H-benzimidazol-1-yl]-3-{[(2,5-difluorophenyl)methyl]oxy}-2-thiophenecarbonitrile]"
11,< 1,"COc1cc2c(cc1OCCCO)ncn2-c1cc(OCc2ccccc2C(F)(F)F)c(C#N)s1 [Example 12, 5-[5-[(3-Hvdroxypropyl)oxy]-6-(methyloxy)-1H-benzimidazol-1-yl]-3-({[2-(trifluoromethyl)phenyl]methyl}oxy)-2-thiophenecarbonitrile]"
12,1 to 10,"COc1cc2ncn(-c3cc(O[C@H](C)c4ccccc4Cl)c(C#N)s3)c2cc1OC [Example 2, 5-[5,6-Bis(methyloxy)-1H-benzimidazol-1-yl]-3-{[(1R)-1-(2-chlorophenyl)ethyl]oxy}-2-thiophenecarbonitrile]"
13,1 to 10,"COc1cc2ncn(-c3cc(O[C@H](C)c4ccccc4C(F)(F)F)c(C#N)s3)c2cc1OC [Example 16, 5-[5,6-Bis(methyloxy)-1H-benzimidazol-1-yl]-3-({(1 R)-1-[2-(trifluoromethyl)phenyl]ethyl}oxy)-2-thiophenecarbonitrile]"
14,1 to 10,"COc1cc2ncn(-c3cc(OCCN4CCOCC4)c(C#N)s3)c2cc1OC [Example 20, 5-[5,6-bis(methyloxy)-1H-benzimidazol-1-yl]-3-{[2-(4-morpholinyl)ethyl]oxy}-2-thiophenecarbonitrile]"
15,< 1,"COc1cc2ncn(-c3cc(OCc4ccccc4C(F)(F)F)c(C#N)s3)c2cc1OC [Example 5, 5-[5,6-Bis(methyloxy)-1H-benzimidazol-1-yl]-3-({[2-(trifluoromethyl)phenyl]methyl}oxy)-2-thiophenecarbonitrile]"

# More lines, now with the values behind:
row,SMILES,IC50 [µM]
1,"COc1cc2ncn(-c3cc(OCc4ccccc4S(C)(=O)=O)c(C#N)s3)c2cc1OC [Example 9, 5-[5,6-Bis(methyloxy)-1H-benzimidazol-1-yl]-3-({[2-(methylsulfonyl)phenyl]methyl}oxy)-2-thiophenecarbonitrile]",< 1
2,"COc1cc2c(cc1OCCN1CCOCC1)ncn2-c1cc(OCc2ccccc2C(F)(F)F)c(C#N)s1 [Example 7, 5-(6-(Methyloxy)-5-([2-(4-morpholinyl)ethyl]oxy)-1H-benzimidazol-1-yl)-3-({[2-(trifluoromethyl)phenyl]methyl}oxy)-2-thiophene carbonitrile]",< 1
3,"COc1cc2ncn(-c3cc(OCc4c(F)cccc4F)c(C#N)s3)c2cc1OC [Example 11, 5-[5,6-bis(Methyloxy)-1H-benzimidazol-1-yl]-3-{[(2,6-difluorophenyl)methyl]oxy}-2-thiophenecarbonitrile]",< 1
4,"COc1cc2ncn(-c3cc(OCc4ccccc4OC(F)(F)F)c(C#N)s3)c2cc1OC [Example 18, 5-[5,6-bis(methyloxy)-1H-benzimidazol-1-yl]-3-[({2-[(trifluoromethyl)oxy]phenyl}methyl)oxy]-2-thiophenecarbonitrile]",< 1
5,"COc1cc2ncn(-c3cc(OCc4ccncc4Br)c(C#N)s3)c2cc1OC [Example 13, 5-[5,6-Bis(methyloxy)-1H-benzimidazol-1-yl]-3-{[(3-bromo-4-pyridinyl)methyl]oxy}-2-thiophenecarbonitrile]",1 to 10
6,"COc1cc2ncn(-c3cc(OCCOc4ccccc4)c(C#N)s3)c2cc1OC [Example 24, 5-[5,6-bis(methyloxy)-1H-benzimidazol-1-yl]-3-{[2-(phenyloxy)ethyl]oxy}-2-thiophenecarbonitrile]",< 1
7,"N#Cc1sc(-n2cnc3ccccc32)cc1OCc1ccccc1 [Example 4, 5-(1H-Benzimidazol-1-yl)-3-[(phenylmethyl)oxy]-2-thiophenecarbonitrile]",1 to 10
8,"COc1cc2ncn(-c3cc(OCC4CCCCO4)c(C#N)s3)c2cc1OC (stereo not shown) [Example 23, 5-[5,6-bis(methyloxy)-1H-benzimidazol-1-yl]-3-[(tetrahydro-2 H-pyran-2-ylmethyl)oxy]-2-thiophenecarbonitrile]",< 1
9,"COc1cc2ncn(-c3cc(OCC4CCCCC4)c(C#N)s3)c2cc1OC [Example 14, 5-[5,6-Bis(methyloxy)-1H-benzimidazol-1-yl]-3-[(cyclohexylmethyl)oxy]-2-thiophenecarbonitrile]",< 1
10,"Cc1ccccc1COc1cc(-n2cnc3ccccc32)sc1C#N [Example 3, 5-(1H-Benzimidazol-1-yl)-3-{[(2-methylphenyl)methyl]oxy}-2-thiophenecarbonitrile]",< 1
11,"COc1cc2ncn(-c3cc(OCc4ccc(CO)cc4)c(C#N)s3)c2cc1OC [Example 1, 5-[5,6-Bis(methyloxy)-1H-benzimidazol-1-yl]-3-({[4-(hydroxymethyl)phenyl]methyl}oxy)-2-thiophenecarbonitrile]",< 1
12,"COc1cc2ncn(-c3cc(OCc4ccsc4)c(C#N)s3)c2cc1OC [Example 26, 5-[5,6-bis(methyloxy)-1H-benzimidazol-1-yl]-3-[(3-thienylmethyl)oxy]-2-thiophenecarbonitrile]",< 1
13,"COc1cc2ncn(-c3cc(OCc4cccs4)c(C#N)s3)c2cc1OC [Example 27, 5-[5,6-bis(methyloxy)-1H-benzimidazol-1-yl]-3-[(2-thienylmethyl)oxy]-2-thiophenecarbonitrile]",< 1
